Experimental data from US20140342065A1 (priority 2012, published 2014).
Like-named read-outs stand apart in the source and are kept apart here.

Experiments:
[1] = tested on: Banana, Tomato and slices of avocado; yeast and/or bacteria
Source text: Representative samples include fruits (Banana), and vegetables (Tomato) and slices of avocado. Experiments were repeated at least four times and each food category included a minimum of six items in each group. The containers were made of gas impermeable Plexiglas that snugly fitted onto the container rim. Fruits were placed on regular kitchen towels that covered the bottom of the containers. Control and experimental group (Exp) of fruits were placed in separate containers. The amount of H2S—H2 gas within the Exp containers varied from 5-15 ppm during the course of exposure. When the level dropped below 5 ppm, the H2 gas was substituted. Experiment was carried out at room temperature for the durations shown. […] Growth of bacteria and yeast was checked by taking samples of food and streaking them over agar. Samples from each fruit were diluted in phosphate buffered saline, pH 7.4. From each sample, 20 microliters was streaked on agar plates and plates were maintained either at room temperature or at 37° C.

[2] = tested on: strawberries; micro-organisms
Method: Fruits were treated without or with gas with each gas at 40 ppm. N=12, Differences between control and treated groups (P<0.05-P<0.005).

[3] = tested on: humans; settings: cited from earlier work
[4] = 0.01-0.1 mol/liter solutions at 18° C.; cited from earlier work
[5] = tested on: mice; settings: cited from earlier work
[6] = tested on: bacteria and yeast; experiment: Agar plates stored with H2S gas 40 ppm (FIG. 11, 104); type: cell-based; settings: H2S 40 ppm
Source text: Representative samples of foods shown include fruits, and vegetables. […] Control foods were stored in closed containers. The containers were made of aluminum with a plastic lid that snugly fitted onto the container rim. […] The inlet and outlet valves were then closed. Using a H2S gas detector capable of detecting 1 to 500 ppm of H2S, no H2S was detected outside the chamber. […] There is small change in color, consistency, and of the same food group and there is no evidence of growth of yeast in the H2S gas-treated group. Growth of bacteria and yeast was checked by taking samples of food and streaking them over agar. […] Strawberry 80. […] This growth was quite evident on day 5 (arrows, 81). The fruit also lost its consistency and is discolored. […] Banana, 86. Growth of yeast is seen by day 8 in the control group. The fruit also lost its consistency and is discolored. […] A slice of banana 99. […] The fruit also lost its consistency and is discolored. […] Pistachio 101. […] Green bananas 102. Green bananas in each group were used in this experiment. The control bananas ripened, developed a yellow color that still maintained some of their green color on day 8. Tomatoes 103. Green tomatoes in each group were used in this experiment. […] Samples from each fruit were diluted in phosphate buffered saline, pH 7.4. […]

[7] = in water; cited from earlier work
[8] = in water; cited from earlier work; remark: listed apart in the source
[9] = tested on: Strawberry, Blackberry, Raspberry, Banana, Tomato and Avocado; mold and/or bacteria
Source text: Representative samples include but are not limited to (Strawberry, Blackberry, Raspberry, Banana, Tomato and Avocado). Experiments were repeated at least four times and each food category included a minimum of six items in each group. The containers were made of gas impermeable plexi-glass that snugly fitted onto the container rim. Fruits were placed on regular kitchen towels that covered the bottom of the container. Control and experimental group (Exp) of fruits were placed in separate containers. […] When the level dropped below 5 ppm, the H2 gas was substituted. Experiment was carried out at room temperature for the durations shown.

## [He] [Helium]
[1]; closed environment, room temperature
  food spoilage: prevents food spoilage
[2]
  growth of micro-organisms: retarded but did not prevent growth of micro-organisms
[2]; relative to Hydrogen
  effect on ripening and oxidation: greater than Hydrogen
  prevention of food spoilage: comparable with Hydrogen

## S [Hydrogen Sulfide]
[3]; 5 minute exposure
  lethal concentration for 50% of humans (LC50): 800 ppm
[3]; after a few inhalations
  concentration at which the olfactory nerve is paralyzed: 100-150 ppm
[3]; even after a single breath
  concentration causing immediate collapse with loss of breathing: over 1000 ppm
[3]; in vivo
  borderline concentration for eye irritation: 10-20 ppm
  concentration causing strong stimulation of the central nervous system and rapid breathing, leading to loss of breathing: 530-1000 ppm
  concentration leading to eye damage: 50-100 ppm
  concentration leading to pulmonary edema with the possibility of death: 320-530 ppm
  concentration with an exposure limit of 8 hours per day: < 10 ppm
  recognition threshold, concentration at which 50% of humans can detect the odor: 0.0047 ppm
  threshold level at which the oxidative (detoxifying) enzymes get overwhelmed: 300-350 ppm
[4]
  pKa (giving the hydro-sulfide ion HS^−): 6.9
[5]; 81 ppm H2S, 6 hours
  health consequences after the procedure: no negative health consequences
[5]; mice treated with Hydrogen Sulfide (81 ppm)
  blood pressure: did not significantly decrease
[5]; range of 80 ppm
  side effects: no side effects
[6]
  time without growth following initiation of cultures: up to 2 months

## [HH] [Hydrogen]
[1]
  food spoilage: prevents food spoilage
[7]
  reaction rate constant k, .O^− + H2: 8e+07 M⁻¹ s⁻¹
[8]
  reaction rate constant k, .OH + H2: 4.2e+07 M⁻¹ s⁻¹
[9]; H2 5-45 ppm, closed container, room temperature
  food spoilage and growth of mold and/or bacteria: prevents food spoilage and retards but does not inhibit growth of mold and/or bacteria
[9]; Strawberry, Raspberry, Blackberry, control day 3, less severe than control
  day on which growth of mold is evident: 4 days
[9]; day 4
  discoloration and yeast growth on avocado slice: only moderate surface discoloration and no evidence of growth of yeast
[9]; day 4, versus control
  ripening and surface discoloration of un-ripened bananas: less ripening and discoloration
  ripening of un-ripened tomato: less ripening
